Experimental data from patent publication US8507555B2, “Non-toxic anti-cancer drug combining ascorbate, magnesium and a naphthoquinone” (Summa Health System, priority 2006, dated 2013).
Read-outs that look alike come from different tables or passages of the source.

Key:
[1] = system: HS68 Fibroblasts; experiment: MTT cytotoxicity assay, HS68 fibroblasts; assay type: cell-based; settings: read-out: CD50, vitamin alone
Procedure: (§1) The effect of the new Mg-containing formulation, which combined MgVC2+VK3, on proliferation and survival of cancer cells was evaluated was then evaluated using the MTT assay, a […] assay that measures the number of viable cells in a cell sample. 3-[4,5-dimethylthiazol-2-yl]-2,5-diphenyltetrazolium bromide (MTT) is a chromogen that is converted to a measurable colored product by viable cells. Therefore, the amount of color measured is proportional to the number of viable cells. This assay has been used widely to assess the cytotoxicity and selectivity of anti-cancer drugs because MTT is suitable for rapid toxicity characterization of new drug candidates and formulations. One way of assigning a cytotoxic activity to an agent is by converting the raw date to a CD50 value, which represent the amount (dose) of the agent needed to achieve 50% of the maximal cytotoxic activity. A lower CD50 indicates a greater cytotoxic activity (as a lower amount of the agent is needed to achieve a fixed level of cytotoxicity). Two agents can be compared by examining the fold-increase or decrease in their CD50 values.
(§2) To evaluate the antitumor activity at a MgVC2:VK3 ratio of […], MgVC was combined with VK3 at a MgVC2:VK3 ratio of 100:1 (which is effectively a VC:VK3 ratio of 200:1). The NaVC:K3 formulation was prepared at a ratio of 200:1.
This indicates a selectivity for tumor vs. “normal” cells.

[2] = system: DU145 Prostate Cancer Cells; experiment: MTT cytotoxicity assay, DU145 prostate cancer cells; assay type: cell-based, human; settings: read-out: CD50, vitamin alone
Procedure: as §1, §2
The antitumor activity of the two formulations against a human androgen-independent prostate cancer cell line DU145 was evaluated in the MTT assay.

[3] = system: DNase I; settings: tumor cells; cited from earlier work
[4] = Homo sapiens, DU-145, 24 h, 1 day
[5] = Homo sapiens, DU-145, 48 h, 2 days
[6] = Homo sapiens, DU-145, 72 h, 3 days

Compound | IC50 ([1]; Homo sapiens, 24 h, 1 day) | IC50 ([1]; Homo sapiens, 48 h, 2 days) | IC50 ([1]; Homo sapiens, 72 h, 3 days) | IC50 [2, 4] | IC50 [2, 5] | IC50 [2, 6] | IC50 ([1]; 1 day) | IC50 ([1]; 2 days) | IC50 ([1]; 3 days) | IC50 ([2]; 1 day) | IC50 ([2]; 2 days) | IC50 ([2]; 3 days) | time of exposure to re-expression of latent DNase I activity [3]
O=C1O[C@H]([C@@H](O)CO)C(O)=C1O [NaVC, sodium ascorbate] | 1.47 mM | 1.24 mM | 1.19 mM | 3.07 mM | 1.48 mM | 0.994 mM | – | – | – | – | – | – | –
magnesium ascorbate [MgVC2] | – | – | – | – | – | – | 1.66 mM | 1.75 mM | 1.5 mM | 2.51 mM | 1.15 mM | 0.432 mM | –
CC1=CC(=O)c2ccccc2C1=O [VK3, 2-methyl-1,4-naphthoquinone] | 0.0187 mM | 0.019 mM | 0.0187 mM | 0.0375 mM | 0.0375 mM | 0.0375 mM | – | – | – | – | – | – | ≤ 15 min
